ChEMBL document CHEMBL3045054, “Synthesis and insecticidal activity of novel 1-alkyl-3-sulfonyloxypyrazole-4-carboxamide derivatives” (2010)

What was measured:
Format in all cases: functional
Tetranychus urticae [1] = test: Insecticidal activity against Tetranychus urticae (two-spotted spider mite) in compound treated kidney bean leaf disk assessed as mortality at 62.5 ppm measured after 7 days; conditions: foliar, 168 h
Nephotettix cincticeps [2] = test: Insecticidal activity against Nephotettix cincticeps (green rice leafhopper) third instar larvae in compound treated rice seedlings assessed as mortality at 62.5 ppm measured after 7 days; conditions: 168 h
Tetranychus urticae [3] = test: Insecticidal activity against Tetranychus urticae (two-spotted spider mite) eggs in compound treated kidney bean leaf disk assessed as ovicidal at 62.5 ppm measured after 7 days; conditions: foliar, 168 h
Nephotettix cincticeps [4] = test: Insecticidal activity against Nephotettix cincticeps (green rice leafhopper) third instar larvae in compound treated rice seedlings assessed as mortality at 3.1 ppm measured after 7 days; conditions: 168 h
Tetranychus urticae [5] = test: Insecticidal activity against Tetranychus urticae (two-spotted spider mite) in compound treated kidney bean leaf disk assessed as mortality at 3.1 ppm measured after 7 days; conditions: foliar, 168 h
Tetranychus urticae [6] = test: Insecticidal activity against Tetranychus urticae (two-spotted spider mite) eggs in compound treated kidney bean leaf disk assessed as ovicidal at 3.1 ppm measured after 7 days; conditions: foliar, 168 h
Tetranychus urticae [7] = test: Insecticidal activity against Tetranychus urticae (two-spotted spider mite) in compound treated kidney bean leaf disk assessed as mortality at 500 ppm measured after 7 days; conditions: foliar, 168 h
Tetranychus urticae [8] = test: Insecticidal activity against Tetranychus urticae (two-spotted spider mite) eggs in compound treated kidney bean leaf disk assessed as ovicidal at 500 ppm measured after 7 days; conditions: foliar, 168 h
Nephotettix cincticeps [9] = test: Insecticidal activity against Nephotettix cincticeps (green rice leafhopper) third instar larvae in compound treated rice seedlings assessed as mortality at 500 ppm measured after 7 days; conditions: 168 h
Nephotettix cincticeps [10] = test: Insecticidal activity against Nephotettix cincticeps (green rice leafhopper) third instar larvae in compound treated rice seedlings assessed as mortality at 1.3 ppm measured after 7 days; conditions: 168 h
Tetranychus urticae [11] = test: Insecticidal activity against Tetranychus urticae (two-spotted spider mite) eggs in compound treated kidney bean leaf disk assessed as ovicidal at 1.3 ppm measured after 7 days; conditions: foliar, 168 h
Tetranychus urticae [12] = test: Insecticidal activity against Tetranychus urticae (two-spotted spider mite) in compound treated kidney bean leaf disk assessed as mortality at 1.3 ppm measured after 7 days; conditions: foliar, 168 h

SMILES	mortality at 62.5 ppm (Tetranychus urticae [1]) [%]	mortality at 62.5 ppm (Nephotettix cincticeps [2]) [%]	mortality at 62.5 ppm (Tetranychus urticae [3]) [%]	mortality at 3.1 ppm (Nephotettix cincticeps [4]) [%]	mortality at 3.1 ppm (Tetranychus urticae [5]) [%]	mortality at 3.1 ppm (Tetranychus urticae [6]) [%]	mortality at 500 ppm (Tetranychus urticae [7]) [%]	mortality at 500 ppm (Tetranychus urticae [8]) [%]	mortality at 500 ppm (Nephotettix cincticeps [9]) [%]	mortality at 1.3 ppm (Nephotettix cincticeps [10]) [%]	mortality at 1.3 ppm (Tetranychus urticae [11]) [%]	mortality at 1.3 ppm (Tetranychus urticae [12]) [%]
CCn1cc(C(=O)NC(C)C)c(OS(C)(=O)=O)n1	51	100	13	100	–	–	–	–	–	–	–	–
CC(C)C(C)(C#N)NC(=O)c1cn(C)nc1OS(C)(=O)=O (stereo not given)	100	100	100	32	11	26	–	–	–	–	–	–
CCS(=O)(=O)Oc1nn(C(C)(C)C)cc1C(=O)NC(C)C	–	–	–	–	–	–	50	0	0	–	–	–
CCC(C#N)(CC)NC(=O)c1cn(C)nc1OS(C)(=O)=O	100	100	100	55	100	100	–	–	–	–	–	–
CCC(CC)NC(=O)c1cn(C)nc1OS(C)(=O)=O	100	100	19	65	10	–	–	–	–	–	–	–
CC(C)NC(=O)c1cn(C)nc1OS(=O)(=O)CCl	15	100	13	10	–	–	–	–	–	–	–	–
CNC(=O)c1cn(C)nc1OS(C)(=O)=O	19	20	4	–	–	–	–	–	–	–	–	–
Cn1cc(C(=O)NC2CC2)c(OS(C)(=O)=O)n1	21	97	9	10	–	–	–	–	–	–	–	–
CC(C)N(C)C(=O)c1cn(C)nc1OS(C)(=O)=O	10	41	5	–	–	–	–	–	–	–	–	–
Cn1cc(C(=O)NCC(F)(F)F)c(OS(C)(=O)=O)n1	86	22	61	–	–	–	–	–	–	–	–	–
CCNC(=O)c1cn(C)nc1OS(C)(=O)=O	0	0	0	–	–	–	–	–	–	–	–	–
CCCn1cc(C(=O)NC(C)C)c(OS(C)(=O)=O)n1	36	100	26	76	–	–	–	–	–	–	–	–
CC(C)NC(=O)c1cn(C(C)C)nc1OS(C)(=O)=O	50	100	47	74	–	–	–	–	–	–	–	–
CC(C)NC(=O)c1cn(CCF)nc1OS(C)(=O)=O	50	100	69	43	–	–	–	–	–	–	–	–
CCS(=O)(=O)Oc1nn(C)cc1C(=O)NC(C)C	14	100	2	55	–	–	–	–	–	–	–	–
Cn1cc(C(=O)NC(C)(C)C)c(OS(C)(=O)=O)n1	23	100	3	80	–	–	–	–	–	–	–	–

SMILES	mortality at 62.5 ppm (Tetranychus urticae [1]) [%]	mortality at 62.5 ppm (Nephotettix cincticeps [2]) [%]	mortality at 62.5 ppm (Tetranychus urticae [3]) [%]	mortality at 3.1 ppm (Nephotettix cincticeps [4]) [%]	mortality at 3.1 ppm (Tetranychus urticae [5]) [%]	mortality at 3.1 ppm (Tetranychus urticae [6]) [%]	mortality at 500 ppm (Tetranychus urticae [7]) [%]	mortality at 500 ppm (Tetranychus urticae [8]) [%]	mortality at 500 ppm (Nephotettix cincticeps [9]) [%]	mortality at 1.3 ppm (Nephotettix cincticeps [10]) [%]	mortality at 1.3 ppm (Tetranychus urticae [11]) [%]	mortality at 1.3 ppm (Tetranychus urticae [12]) [%]
Cn1cc(C(=O)NC2(C#N)CCCCC2)c(OS(C)(=O)=O)n1	93	50	20	–	–	–	–	–	–	–	–	–
CCCC(C)(C#N)NC(=O)c1cn(C)nc1OS(C)(=O)=O (stereo not given)	64	100	67	81	8	3	–	–	–	–	–	–
CCCC(C)NC(=O)c1cn(C)nc1OS(C)(=O)=O (stereo not given)	94	100	44	95	7	6	–	–	–	–	–	–
CCCC(C#N)(CC)NC(=O)c1cn(C)nc1OS(C)(=O)=O (stereo not given)	15	22	39	–	–	–	–	–	–	–	–	–
CC(NC(=O)c1cn(C)nc1OS(C)(=O)=O)c1ccccc1 (stereo not given)	0	81	0	–	–	–	–	–	–	–	–	–
CC(C)NC(=O)c1cn(C)nc1OS(=O)(=O)C(F)(F)F	15	24	10	–	–	–	–	–	–	–	–	–
CCCNC(=O)c1cn(C)nc1OS(C)(=O)=O	25	87	7	–	–	–	–	–	–	–	–	–
CC(C)NC(=O)c1cn(C)nc1OS(=O)(=O)N(C)C	0	0	0	–	–	–	–	–	–	–	–	–
CC(C)CNC(=O)c1cn(C)nc1OS(C)(=O)=O	89	100	12	100	–	–	–	–	–	97	–	–
CC(C)NC(=O)c1cn(C)nc1OS(C)(=O)=O	100	100	37	100	17	23	–	–	–	74	22	16
CCC(C#N)NC(=O)c1cn(C)nc1OS(C)(=O)=O (stereo not given)	100	100	94	10	7	3	–	–	–	–	–	–
Cn1cc(C(=O)NCC#N)c(OS(C)(=O)=O)n1	100	47	100	–	8	8	–	–	–	–	–	–
CCCCCC(C)NC(=O)c1cn(C)nc1OS(C)(=O)=O (stereo not given)	29	94	6	8	–	–	–	–	–	–	–	–
CC(C)NC(=O)c1cn(CCCl)nc1OS(C)(=O)=O	80	100	34	96	15	30	–	–	–	–	–	–
CCC(C)(C#N)NC(=O)c1cn(C)nc1OS(C)(=O)=O (stereo not given)	100	100	100	88	15	9	–	–	–	–	–	–
